# Test results published in BindingDB's records for doi:10.1016/j.ejmech.2021.113204 (Shandong University, 2021).
# How the values were obtained:
# [1] = Inhibition of reverse transcriptase L100I mutant in HIV-1 infected in human MT4 cells assessed as reduction in virus-induced cytopathic effect incubated for 5 days by MTT assay
# [2] = Inhibition of reverse transcriptase Y188L mutant in HIV-1 infected in human MT4 cells assessed as reduction in virus-induced cytopathic effect incubated for 5 days by MTT assay
# [3] = Inhibition of reverse transcriptase F227L/V106A double mutant in HIV-1 infected in human MT4 cells assessed as reduction in virus-induced cytopathic effect incubated for 5 days by MTT assay
# [4] = Inhibition of reverse transcriptase E138K mutant in HIV-1 infected in human MT4 cells assessed as reduction in virus-induced cytopathic effect incubated for 5 days by MTT assay
# [5] = Inhibition of reverse transcriptase K103N mutant in HIV-1 infected in human MT4 cells assessed as reduction in virus-induced cytopathic effect incubated for 5 days by MTT assay
Compound,EC50 [1],EC50 [2],EC50 [3],EC50 [4],EC50 [5]
Cc1cc(/C=C/C#N)cc(C)c1Oc1nc(Nc2ccc(CN3CCN(S(N)(=O)=O)CC3)cc2)nc2ccsc12,43 nM,544 nM,175 nM,26 nM,
Cc1cc(/C=C/C#N)cc(C)c1Oc1nc(Nc2ccc(CN3CCN(S(C)(=O)=O)CC3)cc2)nc2ccsc12,1560 nM,> 20700 nM,2200 nM,983 nM,356 nM
Cc1cc(/C=C/C#N)cc(C)c1Oc1nc(Nc2ccc(CN3CCN(S(N)(=O)=O)CC3)cc2)nc2sccc12,15 nM,877 nM,369 nM,25 nM,7 nM
Cc1cc(/C=C/C#N)cc(C)c1Oc1nc(Nc2ccc(CN3CCN(S(C)(=O)=O)CC3)cc2)nc2sccc12,387 nM,9410 nM,1640 nM,162 nM,54 nM
Cc1cc(/C=C/C#N)cc(C)c1Oc1nc(Nc2ccc(N3CCN(S(N)(=O)=O)CC3)cc2)nc2ccsc12,767 nM,23100 nM,203 nM,43 nM,21 nM
Cc1cc(/C=C/C#N)cc(C)c1Oc1nc(Nc2ccc(N3CCN(S(C)(=O)=O)CC3)cc2)nc2ccsc12,938 nM,5110 nM,285 nM,88 nM,56 nM
Cc1cc(/C=C/C#N)cc(C)c1Oc1nc(Nc2ccc(N3CCN(S(N)(=O)=O)CC3)cc2)nc2sccc12,409 nM,10100 nM,331 nM,50 nM,31 nM
Cc1cc(/C=C/C#N)cc(C)c1Oc1nc(Nc2ccc(N3CCN(S(C)(=O)=O)CC3)cc2)nc2sccc12,3320 nM,68400 nM,1950 nM,405 nM,219 nM
Cc1cc(/C=C/C#N)cc(C)c1Oc1nc(Nc2ccc(N3CCCC(NS(N)(=O)=O)C3)cc2)nc2ccsc12 (stereo unspecified),1660 nM,6750 nM,381 nM,123 nM,102 nM
Cc1cc(/C=C/C#N)cc(C)c1Oc1nc(Nc2ccc(N3CCCC(NS(C)(=O)=O)C3)cc2)nc2ccsc12 (stereo unspecified),6820 nM,150000 nM,16800 nM,1280 nM,
Cc1cc(/C=C/C#N)cc(C)c1Oc1nc(Nc2ccc(N3CCCC(NS(N)(=O)=O)C3)cc2)nc2sccc12 (stereo unspecified),2330 nM,88200 nM,3640 nM,621 nM,450 nM
Cc1cc(/C=C/C#N)cc(C)c1Oc1nc(Nc2ccc(N3CCCC(NS(C)(=O)=O)C3)cc2)nc2sccc12 (stereo unspecified),8520 nM,,,4270 nM,1360 nM
